Experimental data reported in PubChem BioAssay (NCI).
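Following 48 hours of exposure in 96-well plates, responses at five concentrations were used to interpolate endpoints linearly. Definition used: TGI = concentration required for complete inhibition of growth.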

Tests used:
Test in all cases: NCI tumour cell line growth inhibition, 48 h
786-0 renal = tested on: 786-0 renal
A498 renal = tested on: A498 renal
A549 NSCLC = tested on: A549 NSCLC
ACHN renal = tested on: ACHN renal
CAKI-1 renal = tested on: CAKI-1 renal
CCRF-CEM leukemia = tested on: CCRF-CEM leukemia
COLO 205 colon = tested on: COLO 205 colon
DLD-1 colon = tested on: DLD-1 colon
DMS 114 small cell lung = tested on: DMS 114 small cell lung
DMS 273 small cell lung = tested on: DMS 273 small cell lung
EKVX NSCLC = tested on: EKVX NSCLC
HCC-2998 colon = tested on: HCC-2998 colon
HCT-116 colon = tested on: HCT-116 colon
HCT-15 colon = tested on: HCT-15 colon
HL-60(TB) leukemia = tested on: HL-60(TB) leukemia
HOP-18 NSCLC = tested on: HOP-18 NSCLC
HOP-62 NSCLC = tested on: HOP-62 NSCLC
HOP-92 NSCLC = tested on: HOP-92 NSCLC
HT29 colon = tested on: HT29 colon
IGROV1 ovarian = tested on: IGROV1 ovarian
K-562 leukemia = tested on: K-562 leukemia
KM12 colon = tested on: KM12 colon
LOX IMVI melanoma = tested on: LOX IMVI melanoma
M14 melanoma = tested on: M14 melanoma
M19-MEL melanoma = tested on: M19-MEL melanoma
MOLT-4 leukemia = tested on: MOLT-4 leukemia
NCI-H23 lung = tested on: NCI-H23 lung
NCI-H460 lung = tested on: NCI-H460 lung
OVCAR-3 ovarian = tested on: OVCAR-3 ovarian
OVCAR-4 ovarian = tested on: OVCAR-4 ovarian
OVCAR-5 ovarian = tested on: OVCAR-5 ovarian
OVCAR-8 ovarian = tested on: OVCAR-8 ovarian
RXF 393 renal = tested on: RXF 393 renal
RXF-631 renal = tested on: RXF-631 renal
SF-268 CNS = tested on: SF-268 CNS
SF-295 CNS = tested on: SF-295 CNS
SF-539 CNS = tested on: SF-539 CNS
SK-MEL-2 melanoma = tested on: SK-MEL-2 melanoma
SK-MEL-28 melanoma = tested on: SK-MEL-28 melanoma
SK-MEL-5 melanoma = tested on: SK-MEL-5 melanoma
SK-OV-3 ovarian = tested on: SK-OV-3 ovarian
SN12C renal = tested on: SN12C renal
SNB-19 CNS = tested on: SNB-19 CNS
SNB-75 CNS = tested on: SNB-75 CNS
SNB-78 CNS = tested on: SNB-78 CNS
SW-620 colon = tested on: SW-620 colon
TK-10 renal = tested on: TK-10 renal
U251 CNS = tested on: U251 CNS
UACC-257 melanoma = tested on: UACC-257 melanoma
UACC-62 melanoma = tested on: UACC-62 melanoma
UO-31 renal = tested on: UO-31 renal

C=C(C#N)C1OCC2OC(C)(C)OC21 (stereo unspecified)
TGI (786-0 renal): 39.4 µM
TGI (A498 renal): 51.2 µM
TGI (A549 NSCLC): > 100 µM
TGI (ACHN renal): 42.4 µM
TGI (CAKI-1 renal): 49.1 µM
TGI (CCRF-CEM leukemia): 48.8 µM
TGI (COLO 205 colon): 30.3 µM
TGI (DLD-1 colon): 34.4 µM
TGI (DMS 114 small cell lung): 57.2 µM
TGI (DMS 273 small cell lung): 43.1 µM
TGI (EKVX NSCLC): 60 µM
TGI (HCC-2998 colon): 83.6 µM
TGI (HCT-116 colon): 38.4 µM
TGI (HCT-15 colon): 35.3 µM
TGI (HL-60(TB) leukemia): 43 µM
TGI (HOP-18 NSCLC): 81.7 µM
TGI (HOP-62 NSCLC): > 100 µM
TGI (HOP-92 NSCLC): 43.3 µM
TGI (HT29 colon): > 100 µM
TGI (IGROV1 ovarian): > 100 µM
TGI (K-562 leukemia): 72 µM
TGI (KM12 colon): > 100 µM
TGI (LOX IMVI melanoma): 30.4 µM
TGI (M14 melanoma): 30.5 µM
TGI (M19-MEL melanoma): 61.8 µM
TGI (MOLT-4 leukemia): 43.3 µM
TGI (NCI-H23 lung): 34.8 µM
TGI (NCI-H460 lung): 57.4 µM
TGI (OVCAR-3 ovarian): 46 µM
TGI (OVCAR-4 ovarian): 33.6 µM
TGI (OVCAR-5 ovarian): 33.9 µM
TGI (OVCAR-8 ovarian): 48.7 µM
TGI (RXF 393 renal): 31.3 µM
TGI (RXF-631 renal): 35.8 µM
TGI (SF-268 CNS): 52.5 µM
TGI (SF-295 CNS): > 100 µM
TGI (SF-539 CNS): 30 µM
TGI (SK-MEL-2 melanoma): 77.2 µM
TGI (SK-MEL-28 melanoma): 43.2 µM
TGI (SK-MEL-5 melanoma): 34 µM
TGI (SK-OV-3 ovarian): > 100 µM
TGI (SN12C renal): 38.2 µM
TGI (SNB-19 CNS): > 100 µM
TGI (SNB-75 CNS): 35.9 µM
TGI (SNB-78 CNS): 43 µM
TGI (SW-620 colon): 39.6 µM
TGI (TK-10 renal): 58.5 µM
TGI (U251 CNS): > 100 µM
TGI (UACC-257 melanoma): 30 µM
TGI (UACC-62 melanoma): 31.9 µM
TGI (UO-31 renal): > 100 µM
